Reference: patent publication US20220370463A1, “STABILIZED C-FMS INTRACELLULAR FRAGMENTS (FICD) PROMOTE OSTEOCLAST DIFFERENTIATION AND ARTHRITIC BONE EROSION” (New York Society for the Relief of the Ruptured and …, priority 2019, published 2022)

Test system: K/BxN serum-induced arthritis
Assay: K/BxN serum transfer induced arthritis model
Assay type: in vivo, C57BL/6J mice
Experimental: (a and b) BMDMs from WT and FICDtg^M mice was stimulated with RANKL (50 ng/ml) at the indicated time. (a) RT-qPCR of Nfatc1 mRNA normalized relative to Hprt mRNA. (b) Immunoblot with anti NFATc1, HA, or α-tubulin antibodies. (c and d) BMDMs from Csf1r^f/+ Mx1-Cre mice were transduced by lentiviruses encoding FMS^wt, or FMS^mut and then cultured with M-CSF and RANKL. (c) Immunoblot of whole lysate with anti-NFATc1 antibody. α-tubulin was used as a control. […] The intensity of NFATc1 in FMS^mut was set as 100%. (d) Expression mRNA level of NFATc1. (e) Immunoblot of whole cell lysates with phospho-eIF4E antibodies. HA-tagged FICD was detected by HA-antibody. α-tubulin was used as a control. […] (f and g) Human CD14+ cells were treated with CGP57380 at the indicated doses for one hour and cultured with RANKL for one day. […] (g) Nfatc1 mRNA expression was measured by qPCR relative to HPRT. A DMSO-treated RANKL condition was set as 100%. (h) Osteoclastogenesis assay. BMDMs from WT and FICDtg^M mice were treated with CPG57380 at the indicated doses and then cultured with RANKL for three days. […] Scale bar: 100 μm. (i) Cell viability assay. BMDMs WT and FICDtg^M mice was stimulated with CPG57380 at the indicated doses for one day. (j-n) K/BxN serum transfer induced arthritis model. 9-week old male C57BL/6J mice were received K/BxN serum on day 0 and day 2. Vehicle or CPG57380 (40 mg/kg) was administrated intraperitoneally (i.p) at day 2 until day 13 (n=5-6). (j) Schematic diagram showing experimental design. (k) Ankle thickness. (1) Arthritis score. (m) Representative images of TRAP stained histological sections from calcaneocuboid and tarsometatarsal joints. (n) Histomorphometry analysis of tarsal bones. N.OC/B.Pm; Osteoclast number/bone parameter. OC.S/BS; osteoclast surface/bone surface. ES/BS; Eroded surface/bone surface (n=5-6). All data are shown as mean±SEM. *, p<0.05 by One-way ANOVA with a post hoc Tukey test (a, f-i,k,l) or two-tailed, unpaired t-test (d,e,n). Data represent at least three experiments.
FIGS. 11A-11E show calpain regulates FICD generation. (A-E) K/BxN serum transfer induced arthritis model. 8-week old male C57BL/6J mice were received K/BxN serum on day 0 and day 2. Vehicle or MDL28170 (10 mg/kg) was administrated intraperitoneally (i.p) at day 2 until day 11 (n=10). (A) K/BxN Experimental design. (B) Arthritis score. (C) Ankle thickness. (D) Representative images of TRAP stained histological sections from calcaneocuboid and tarsometatarsal joints. (E) Histomorphometry analysis of tarsal bones. N.OC/B.Pm; Osteoclast number/bone parameter. […]
Histomorphometry experiment was performed with tarsal bone of vehicle or MDL28170 treated mice. […] The quantification of osteoclast was performed in paraffin embedded tissues that were stained for TRAP and Methyl green (Vector Laboratories). […]

[1] = CGP57380 40 mg/kg i.p. day 2 until day 13
[2] = MDL28170 10 mg/kg i.p. day 2 until day 11

MDL28170 was tested, and the “severity of arthritis: ankle joint thickness” value [1] was “not affected”, the “severity of arthritis: clinical score” value [1] was “not affected” and the “severity of arthritis: ankle joint thickness” value [2] was “attenuated”. For the same substance, the “severity of arthritis: clinical score” value [2] was “attenuated”.
